Measurements: patent US20210107874A1, “PHARMACEUTICAL FORMULATION OF CROTONYLAMINOPYRIDINE SALT” (priority 2017, published 2021)
In brackets after ≈: the same amount, converted by molar mass. Several values for one entry are separate records, joined by “and”; a condition that tells them apart may be missing. Identical values can stand only once. Like-named read-outs stand apart in the source and are kept apart here.

Key:
[1] = Quantitative determination of solubility of compound 5 (UPLC); assay type: physicochemical; conditions: 25 °C, aqueous buffer, thermodynamic from solid
Protocol: Compound 5 (120 mg) was weighed into shell vials and combined with acid (600 μl of a 350 mM solution of the respective acid in water).

[2] = PK studies of formulations, plasma by HPLC-MS/MS; assay type: in vivo; conditions: Cattle
Protocol: The following formulations were prepared and administered to animals. Blood samples were collected at pre-defined time points and the amount of compound present in plasma at the time of sampling was determined by HPLC-MS/MS. Pharmacokinetic parameters were then calculated: Cmax, Tmax, Tlast, AUC. [table]

[3] = FormO50 (L-tartaric acid, NaOH up to pH 4.4, water), SC, 1 mg/kg
[4] = FormO50 (L-tartaric acid, NaOH up to pH 4.4, water), SC, 5 mg/kg
[5] = FormO100 (L-tartaric acid, NaOH up to pH 4.4, water), SC, 1.5 mg/kg

In the case of `COc1cc(NCCNC(=O)/C=C/C(C)(F)F)ccn1` [Compound 5], the solubility at 1 day ([1]; aqueous acid solution (350 mM citric acid in water), Citric acid 350 mM in water, read-out: Solubility T = 1 Day) is reported as 160 mg/mL (≈ 559 mM), the solubility at 1 day ([1]; aqueous acid solution (350 mM citric acid in water), Citric acid 350 mM in water, read-out: Solubility T = 1 Day Average) is reported as 149 mg/mL (≈ 523 mM) and the solubility at 3 days ([1]; aqueous acid solution (350 mM citric acid in water), Citric acid 350 mM in water, read-out: Solubility T = 3 Days) is reported as 153 mg/mL (≈ 536 mM). For the same compound, the solubility at 3 days ([1]; aqueous acid solution (350 mM citric acid in water), Citric acid 350 mM in water, read-out: Solubility T = 3 Days Average) was 151 mg/mL (≈ 529 mM), the solubility at 1 day ([1]; aqueous acid solution (350 mM ethanesulfonic acid in water), Ethanesulfonic acid 350 mM in water, read-out: Solubility T = 1 Day) was 155 mg/mL (≈ 543 mM) and the solubility at 1 day ([1]; aqueous acid solution (350 mM ethanesulfonic acid in water), Ethanesulfonic acid 350 mM in water, read-out: Solubility T = 1 Day Average) was 145 mg/mL (≈ 507 mM). The solubility at 3 days ([1]; aqueous acid solution (350 mM ethanesulfonic acid in water), Ethanesulfonic acid 350 mM in water, read-out: Solubility T = 3 Days) was 167 mg/mL (≈ 587 mM), the solubility at 3 days ([1]; aqueous acid solution (350 mM ethanesulfonic acid in water), Ethanesulfonic acid 350 mM in water, read-out: Solubility T = 3 Days Average) was 165 mg/mL (≈ 578 mM) and the solubility at 1 day ([1]; aqueous acid solution (350 mM fumaric acid in water), Fumaric acid 350 mM in water, read-out: Solubility T = 1 Day) was 152 mg/mL (≈ 531 mM). For the same compound, the solubility at 1 day ([1]; aqueous acid solution (350 mM fumaric acid in water), Fumaric acid 350 mM in water, read-out: Solubility T = 1 Day Average) was 149 mg/mL (≈ 522 mM), the solubility at 3 days ([1]; aqueous acid solution (350 mM fumaric acid in water), Fumaric acid 350 mM in water, read-out: Solubility T = 3 Days) was 140 mg/mL (≈ 490 mM) and the solubility at 3 days ([1]; aqueous acid solution (350 mM fumaric acid in water), Fumaric acid 350 mM in water, read-out: Solubility T = 3 Days Average) was 153 mg/mL (≈ 535 mM). The solubility at 1 day ([1]; aqueous acid solution (350 mM malic acid in water), Malic acid 350 mM in water, read-out: Solubility T = 1 Day) was 129 mg/mL (≈ 451 mM), the solubility at 1 day ([1]; aqueous acid solution (350 mM malic acid in water), Malic acid 350 mM in water, read-out: Solubility T = 1 Day Average) was 122 mg/mL (≈ 427 mM) and the solubility at 3 days ([1]; aqueous acid solution (350 mM malic acid in water), Malic acid 350 mM in water, read-out: Solubility T = 3 Days) was 117 mg/mL (≈ 409 mM). It also gave a solubility at 3 days ([1]; aqueous acid solution (350 mM malic acid in water), Malic acid 350 mM in water, read-out: Solubility T = 3 Days Average) of 116 mg/mL (≈ 408 mM), a solubility at 1 day ([1]; aqueous acid solution (350 mM oxalic acid in water), Oxalic acid 350 mM in water, read-out: Solubility T = 1 Day) of 149 mg/mL (≈ 523 mM) and a solubility at 1 day ([1]; aqueous acid solution (350 mM oxalic acid in water), Oxalic acid 350 mM in water, read-out: Solubility T = 1 Day Average) of 142 mg/mL (≈ 498 mM). For the same compound, the solubility at 3 days ([1]; aqueous acid solution (350 mM oxalic acid in water), Oxalic acid 350 mM in water, read-out: Solubility T = 3 Days) was 155 mg/mL (≈ 544 mM), the solubility at 3 days ([1]; aqueous acid solution (350 mM oxalic acid in water), Oxalic acid 350 mM in water, read-out: Solubility T = 3 Days Average) was 155 mg/mL (≈ 544 mM) and the solubility at 1 day ([1]; aqueous acid solution (350 mM oxoglutaric acid in water), Oxoglutaric acid 350 mM in water, read-out: Solubility T = 1 Day) was 128 mg/mL (≈ 447 mM). It also gave a solubility at 1 day ([1]; aqueous acid solution (350 mM oxoglutaric acid in water), Oxoglutaric acid 350 mM in water, read-out: Solubility T = 1 Day Average) of 129 mg/mL (≈ 453 mM), a solubility at 3 days ([1]; aqueous acid solution (350 mM oxoglutaric acid in water), Oxoglutaric acid 350 mM in water, read-out: Solubility T = 3 Days) of 135 mg/mL (≈ 472 mM) and a solubility at 3 days ([1]; aqueous acid solution (350 mM oxoglutaric acid in water), Oxoglutaric acid 350 mM in water, read-out: Solubility T = 3 Days Average) of 134 mg/mL (≈ 468 mM). It also gave a solubility at 1 day ([1]; aqueous acid solution (350 mM tartaric acid in water), Tartaric acid 350 mM in water, read-out: Solubility T = 1 Day) of 117 mg/mL (≈ 410 mM), a solubility at 1 day ([1]; aqueous acid solution (350 mM tartaric acid in water), Tartaric acid 350 mM in water, read-out: Solubility T = 1 Day Average) of 137 mg/mL (≈ 481 mM) and a solubility at 3 days ([1]; aqueous acid solution (350 mM tartaric acid in water), Tartaric acid 350 mM in water, read-out: Solubility T = 3 Days) of 162 mg/mL (≈ 567 mM). The solubility at 3 days ([1]; aqueous acid solution (350 mM tartaric acid in water), Tartaric acid 350 mM in water, read-out: Solubility T = 3 Days Average) was 163 mg/mL (≈ 571 mM), the Tlast ([2]; FormO50 (L-tartaric acid, NaOH up to pH 4.4, water), SC, 0.5 mg/kg) was 4.4 h and the Tlast ([2]; FormO50 (L-tartaric acid, NaOH up to pH 4.4, water), SC, 0.75 mg/kg) was 5.6 h. The AUC [2, 3] was 1.149 µg·h/mL and 0.969 µg·h/mL, the Cmax [2, 3] was 0.705 µg/mL and 0.815 µg/mL and the Tlast [2, 3] was 6 h and 7 h and 6.8 h. It also gave an AUC [2, 4] of 8.817 µg·h/mL, a Cmax [2, 4] of 5.975 µg/mL and a Tlast [2, 4] of 8 h. It also gave a Tlast ([2]; FormO50 (L-tartaric acid, NaOH up to pH 4.4, water), SC, 10 mg/kg) of 12 h, an AUC [2, 5] of 1.422 µg·h/mL and a Cmax [2, 5] of 0.862 µg/mL. For the same compound, the Tlast [2, 5] was 10.0 h and 8.5 h, the Tmax [2, 5] was 22.8 min and the Tlast ([2]; FormU100 (L-tartaric acid, propylene glycol 400 mg, benzylalcohol, water), SC, 1.5 mg/kg) was 10.0 h. It also gave a Tlast ([2]; FormV100 (L-tartaric acid, propylene glycol 500 mg, benzylalcohol, water), SC, 1.5 mg/kg) of 10.0 h, a Tlast ([2]; FormW100 (L-tartaric acid, propylene glycol 300 mg, benzylalcohol, water), SC, 1.5 mg/kg) of 9.5 h and an AUC ([2]; bovine, plasma, sc, 0.5 mg/kg, pH 4.4, FormO50 (L-tartaric acid, NaOH up to pH 4.4, water), 0.5 mg/kg, read-out: AUC) of 0.371 µg·h/mL. It also gave a Cmax ([2]; bovine, plasma, sc, 0.5 mg/kg, pH 4.4, FormO50 (L-tartaric acid, NaOH up to pH 4.4, water), 0.5 mg/kg, read-out: Cmax) of 0.305 µg/mL, a Tmax ([2]; bovine, plasma, sc, 0.5 mg/kg, pH 4.4, FormO50 (L-tartaric acid, NaOH up to pH 4.4, water), 0.5 mg/kg, read-out: Tmax) of 18 min and an AUC ([2]; bovine, plasma, sc, 0.75 mg/kg, pH 4.4, FormO50 (L-tartaric acid, NaOH up to pH 4.4, water), 0.75 mg/kg, read-out: AUC) of 0.616 µg·h/mL. It also gave a Cmax ([2]; bovine, plasma, sc, 0.75 mg/kg, pH 4.4, FormO50 (L-tartaric acid, NaOH up to pH 4.4, water), 0.75 mg/kg, read-out: Cmax) of 0.397 µg/mL, a Tmax ([2]; bovine, plasma, sc, 0.75 mg/kg, pH 4.4, FormO50 (L-tartaric acid, NaOH up to pH 4.4, water), 0.75 mg/kg, read-out: Tmax) of 30 min and an AUC ([2]; bovine, plasma, sc, 1 mg/kg, pH 4.4, FormO50 (L-tartaric acid, NaOH up to pH 4.4, water), 1 mg/kg, read-out: AUC) of 0.973 µg·h/mL. It also gave a Cmax ([2]; bovine, plasma, sc, 1 mg/kg, pH 4.4, FormO50 (L-tartaric acid, NaOH up to pH 4.4, water), 1 mg/kg, read-out: Cmax) of 0.521 µg/mL, a Tmax ([2]; bovine, plasma, sc, 1 mg/kg, pH 4.4, FormO50 (L-tartaric acid, NaOH up to pH 4.4, water), 1 mg/kg, read-out: Tmax) of 36 min and an AUC ([2]; bovine, plasma, sc, 1.5 mg/kg, FormU100 (L-tartaric acid, propylene glycol 400 mg, benzylalcohol, water), 1.5 mg/kg, read-out: AUC) of 1.68 µg·h/mL. The Cmax ([2]; bovine, plasma, sc, 1.5 mg/kg, FormU100 (L-tartaric acid, propylene glycol 400 mg, benzylalcohol, water), 1.5 mg/kg, read-out: Cmax) was 0.593 µg/mL, the Tmax ([2]; bovine, plasma, sc, 1.5 mg/kg, FormU100 (L-tartaric acid, propylene glycol 400 mg, benzylalcohol, water), 1.5 mg/kg, read-out: Tmax) was 37.8 min and the AUC ([2]; bovine, plasma, sc, 1.5 mg/kg, FormV100 (L-tartaric acid, propylene glycol 500 mg, benzylalcohol, water), 1.5 mg/kg, read-out: AUC) was 1.52 µg·h/mL. For the same compound, the Cmax ([2]; bovine, plasma, sc, 1.5 mg/kg, FormV100 (L-tartaric acid, propylene glycol 500 mg, benzylalcohol, water), 1.5 mg/kg, read-out: Cmax) was 0.54 µg/mL, the Tmax ([2]; bovine, plasma, sc, 1.5 mg/kg, FormV100 (L-tartaric acid, propylene glycol 500 mg, benzylalcohol, water), 1.5 mg/kg, read-out: Tmax) was 105 min and the AUC ([2]; bovine, plasma, sc, 1.5 mg/kg, FormW100 (L-tartaric acid, propylene glycol 300 mg, benzylalcohol, water), 1.5 mg/kg, read-out: AUC) was 1.52 µg·h/mL. The Cmax ([2]; bovine, plasma, sc, 1.5 mg/kg, FormW100 (L-tartaric acid, propylene glycol 300 mg, benzylalcohol, water), 1.5 mg/kg, read-out: Cmax) was 0.743 µg/mL, the Tmax ([2]; bovine, plasma, sc, 1.5 mg/kg, FormW100 (L-tartaric acid, propylene glycol 300 mg, benzylalcohol, water), 1.5 mg/kg, read-out: Tmax) was 52.8 min and the AUC ([2]; bovine, plasma, sc, 1.5 mg/kg, pH 4.4, FormO100 (L-tartaric acid, NaOH up to pH 4.4, water), 1.5 mg/kg, read-out: AUC) was 1.68 µg·h/mL. The Cmax ([2]; bovine, plasma, sc, 1.5 mg/kg, pH 4.4, FormO100 (L-tartaric acid, NaOH up to pH 4.4, water), 1.5 mg/kg, read-out: Cmax) was 1.01 µg/mL, the Tmax ([2]; bovine, plasma, sc, 1.5 mg/kg, pH 4.4, FormO100 (L-tartaric acid, NaOH up to pH 4.4, water), 1.5 mg/kg, read-out: Tmax) was 18.6 min and the AUC ([2]; bovine, plasma, sc, 5 mg/kg, pH 4.4, FormO50 (L-tartaric acid, NaOH up to pH 4.4, water), 5 mg/kg, read-out: AUC) was 7.89 µg·h/mL. For the same compound, the Cmax ([2]; bovine, plasma, sc, 5 mg/kg, pH 4.4, FormO50 (L-tartaric acid, NaOH up to pH 4.4, water), 5 mg/kg, read-out: Cmax) was 3.31 µg/mL, the Tmax ([2]; bovine, plasma, sc, 5 mg/kg, pH 4.4, FormO50 (L-tartaric acid, NaOH up to pH 4.4, water), 5 mg/kg, read-out: Tmax) was 24 min and the AUC ([2]; bovine, plasma, sc, 10 mg/kg, pH 4.4, FormO50 (L-tartaric acid, NaOH up to pH 4.4, water), 10 mg/kg, read-out: AUC) was 18.8 µg·h/mL. It also gave a Cmax ([2]; bovine, plasma, sc, 10 mg/kg, pH 4.4, FormO50 (L-tartaric acid, NaOH up to pH 4.4, water), 10 mg/kg, read-out: Cmax) of 5.93 µg/mL and a Tmax ([2]; bovine, plasma, sc, 10 mg/kg, pH 4.4, FormO50 (L-tartaric acid, NaOH up to pH 4.4, water), 10 mg/kg, read-out: Tmax) of 36 min.
